Data published in patent publication US6914066B2, “1,2-annelated quinoline derivatives” (Janssen Pharmaceutica N.V., priority 1998, dated 2005).
Where a name gives a salt, the structure may show the parent alone.

**Q.** Which melting point does the source give for `Cn1cncc1C(O)(c1ccc(Cl)cc1)c1ccc2c(c1)c(-c1cccc(Cl)c1)c(C(=O)O)c1nnnn12` (centres unmarked) (as salt: hydrochloride) [Comp 53] here?
**A.** The melting point was over 260 °C.

**Q.** For `Cn1cncc1C(O)(c1ccc(Cl)cc1)c1ccc2c(c1)c(-c1cccc(Cl)c1)c(CO)c1nnnn12` (centres unmarked) (as salt: hydrochloride) [Comp 82], which melting point is on record?
**A.** Its melting point is over 280 °C.

**Q.** With `Cn1cncc1C(OCCO)(c1ccc(Cl)cc1)c1ccc2c(c1)c(-c1cccc(Cl)c1)cc1nnnn12` (centres unmarked) (hydrate or solvate) [Comp 41] as the molecule, how does the melting point read?
**A.** The melting point was 150 °C.

**Q.** For `Fc1ccc(C(c2ccc3c(c2)c(-c2ccccc2)cc2nccn23)n2ccnc2)cc1` (racemic) (hydrate or solvate) [Comp 3, (±)-7-[(4fluorophenyl)(1H-imidazol-1-yl)methyl]-5-phenylimidazo[1,2-a]quinoline ethanedioate(2:3).hemihydrate], which melting point is on record?
**A.** The melting point was 204.3 °C.

**Q.** Which melting point does the source give for `O=c1[nH]nc2cc(-c3ccccc3)c3cc(C(c4ccc(Cl)cc4)n4ccnc4)ccc3n12` (racemic) (hydrate or solvate) [Comp 7, (±)-7-[(4-chlorophenyl)-1H-imidazol-1-ylmethyl]-5-phenyl[1,2,4]triazolo[4,3-a]quinolin-1(2H)-one ethanedioate(1:1).hemihydrate] here?
**A.** The melting point was 198.3 °C.

**Q.** With `Cn1cncc1C(O)(c1ccc(Cl)cc1)c1ccc2c(c1)c(-c1cccc(Cl)c1)cc1cnnn12` (racemic) [Comp 26, (±)-5-(3-chlorophenyl)-α-(4-chlorophenyl)-α-(1-methyl-1H-imidazol-5-yl)-[1,2,3]triazolo[1,5-a]quinoline-7-methanol] as the molecule, how does the melting point read?
**A.** Its melting point is 222 °C.

**Q.** Which melting point does the source give for `Cn1cncc1C(O)(c1ccc(Cl)cc1)c1ccc2c(c1)c(-c1cccc(Cl)c1)nc1nnnn12` (racemic) [Comp 29, (±)-5-(3-chlorophenyl)-α-(4-chlorophenyl)-α-(1-methyl-1H-imidazol-5-yl)tetrazolo[1,5-a]quinazoline-7-methanol] here?
**A.** The melting point was 139 °C.

**Q.** For `Cn1cncc1C(O)(c1ccc(Cl)cc1)c1ccc2c(c1)C(c1cccc(Cl)c1)Nc1nnnn1-2` (racemic) [Comp 30, (±)5-(3-chlorophenyl)-α-(4-chlorophenyl)4,5-dihydro-α-(1-methyl-1H-imidazol-5-yl)tetrazolo[1,5-a]quinazoline-7-methanol], which melting point is on record?
**A.** The melting point was 212 °C.

**Q.** Which melting point does the source give for `Cn1cncc1C(N)(c1ccc(Cl)cc1)c1ccc2c(c1)c(-c1cccc(Cl)c1)nc1nnnn12` (racemic) [Comp 32, (±)-5-(3-chlorophenyl)-α-(4-chlorophenyl)-α-(1-methyl-1H-imidazol-5-yl)tetrazolo[1,5-a]quinazoline-7-methanamine] here?
**A.** The melting point was 159 °C.

**Q.** For `CN1c2nnnn2-c2ccc(C(O)(c3ccc(Cl)cc3)c3cncn3C)cc2C1c1cccc(Cl)c1` (racemic) [Comp 33, (±)-5-(3-chlorophenyl)-α-(4-chlorophenyl)-4,5-dihydro-4methyl-α-(1-methyl-1H-imidazol-5-yl)tetrazolo[1,5-a]quinazoline-7-methanol], which melting point is on record?
**A.** Its melting point is 235 °C.

**Q.** With `Cn1cncc1C(N)(c1ccc(Cl)cc1)c1ccc2c(c1)c(-c1cccc(Cl)c1)cc1nnnn12` (centres unmarked) [Comp 27] as the molecule, how does the melting point read?
**A.** The melting point was 172 °C.

**Q.** With `Cn1cncc1C(N)(c1ccc(Cl)cc1)c1ccc2c(c1)c(-c1cccc(Cl)c1)cc1nnnn12` (centres unmarked) [Comp 28] as the molecule, how does the melting point read?
**A.** Its melting point is 180 °C.

**Q.** With `CNC(c1ccc(Cl)cc1)(c1ccc2c(c1)c(-c1cccc(Cl)c1)cc1nnnn12)c1cncn1C` (centres unmarked) [Comp 48] as the molecule, how does the melting point read?
**A.** The melting point was 167 °C.

**Q.** For `CNc1ncc(C(c2ccc(Cl)cc2)c2ccc3c(c2)c(-c2cccc(Cl)c2)cc2nnnn23)n1C` (centres unmarked) [Comp 49], which melting point is on record?
**A.** The melting point was 206 °C.

**Q.** With `Cn1cncc1C(N)(c1ccc(Cl)cc1)c1ccc2c(c1)c(-c1cccc(Cl)c1)c(C(N)=O)c1nnnn12` (centres unmarked) [Comp 77] as the molecule, how does the melting point read?
**A.** Its melting point is over 250 °C.

**Q.** For `Cn1cncc1C(O)(c1ccc(Cl)cc1)c1ccc2c(c1)c(-c1cccc(Cl)c1)c(C(N)=O)c1nnnn12` (centres unmarked) [Comp 80], which melting point is on record?
**A.** Its melting point is over 250 °C.

**Q.** With `Cn1cncc1C(c1ccc(Cl)cc1)c1ccc2c(c1)c(-c1cccc(Cl)c1)cc1nnnn12` (centres unmarked) [Comp 94] as the molecule, how does the melting point read?
**A.** The melting point was 166 °C.

**Q.** Which melting point does the source give for `CCOC(=O)c1cn2c(cc(-c3cccc(Cl)c3)c3cc(C(O)(c4ccc(Cl)cc4)c4cncn4C)ccc32)n1` (centres unmarked) [Comp 95] here?
**A.** The melting point was 143 °C.

**Q.** With `Cn1cncc1C(NO)(c1ccc(Cl)cc1)c1ccc2c(c1)c(-c1cccc(Cl)c1)cc1cnnn12` (centres unmarked) [Comp 98] as the molecule, how does the melting point read?
**A.** The melting point was 191 °C.

**Q.** For `CNCC(=O)NC(c1ccc(Cl)cc1)(c1ccc2c(c1)c(-c1cccc(Cl)c1)cc1nnnn12)c1cncn1C` (centres unmarked) [Comp 121], which melting point is on record?
**A.** Its melting point is 224 °C.
